Assay [1] relates to Candida albicans hyphae. Kind of assay: propidium iodide hyphal permeability assay. Format: cell-based. The conditions noted are these: N terminus FITC label, during PI assay. The procedure: (§1) Candida albicans (sc3514 cited in: Romanowski et al. PLOS One 7: e30119, 2012.: incorporated by reference in its entirety) and Candida tropicalis (ATCC #13803) were maintained in frozen glycerol stocks at −80° C. and streaked out on yeast-peptone-dextrose (YPD) agar plates for 48 hours at 30° C. prior to use. Single colonies were selected and cultured in YPD media at 30° C. Biofilm assays were performed using crystal violet straining (Taff et al. Med Mycol 50:214-218, 2012.: incorporated by reference in its entirety) in the presence of 10-20 uM of respective peptides. To induce hyphal growth, strains were placed in YPD+5% FBS or RPMI media at 37° C. for 4 hours. To image hyphal membrane disruption, the DNA binding fluorescent dye, propidium iodide (PI), was added to wells strains in the presence of peptides and imaged under bright field and far red fluorescent conditions. […] To investigate Candida albican virulence gene expression, 10 μL of a 1.0 OD600 culture were placed in 1 mL RPMI at 37° C. with shaking for 8 hours. Cultures were centrifuged at 3000×g for 5 minutes and RNA isolation was performed as described below.
Magainin-2 compromises fungal growth by inserting into and permeabilizing the fungal cell wall. […] Permeabilization of the fungal cell wall was determined by uptake of propidium iodide (PI), a dye that is excluded by intact viable cells. […]

Assay [2] has as its system PYY. Kind of assay: ex vivo ileal tissue culture and PYY ELISA. More on the design: species or system mice. Here is the method: Tissues were harvested from conventional or germ-free WT mice. Three cm sections of distal ileum were dissected from the mesentery and ligated on one end. Next, Krebs buffer (pH 7.4) was inoculated with either LPS (100 ng/mL) or Carbamoylcholine (10 um) and sealed in the ileal section and incubated in Krebs at 37° C. for 30 minutes. Next, the luminal solutions were retrieved and centrifuged at 3000×g for 3 minutes to remove particulate.
On the technique in general: ELISA stands for enzyme-linked immunosorbent assay.

For assay [3], the system named is C. albicans strain SC5314. Description: crystal violet based biofilm assay (24 hours, OD600). It is filed as cell-based, Candida albicans. The conditions noted are these: crystal violet staining, 10-20 uM of respective peptides. Here is the method:
FIG. 13. […] Biofilm formation was measured in an assay that quantitates biofilms by staining with a crystal violet dye. The amount of dye absorbed by the biofilm positively correlates with amount of biofilm present. Amount of dye is measured via an optical density reading at a wavelength of 600 nm (OD600). Biofilm formation is measured over 24 hours in the presence or absence of peptides at 10, 30, or 40 uM concentrations.
as §1
Antifungal activity of peptides described in this application was tested by performing a crystal violet based biofilm assay. In this assay, Candida albicans is induced to form a biofilm in a 96-well plate for 24 hours in the presence or absence of peptide. Biofilm formation is quantitated through crystal violet staining and solubilization followed by optical density reading. […] Data are OD600 values normalized to appropriate within experiment vehicle control. Statistical analysis was performed via 2-Way ANOVA with multiple comparisons post-test. Significance is denoted by: *=p<0.05; **=p<0.01; ***-p<0.001; ****=p<0.0001. ns=not significant.

The subject of assay [4] is Candida albicans. Description: Candida albicans culture growth. Format: cell-based. As to conditions: hyphal inducing conditions (broth culture containing serum).
Assay [5] deals with C. albicans. Kind of assay: respiration of C. albicans. Format: cell-based, Candida albicans.
In assay [6] the test system is C. tropicalis. Description: respiration of C. tropicalis. It is filed as cell-based, Candida tropicalis.
Assay [7] has as its system Candida albicans virulence genes. Kind of assay: virulence gene expression by qRT-PCR. The conditions noted are these: hyphal form, RPMI at 37° C., compared with scrambled peptide controls. Format: cell-based. Here is the method:
as §1
(In general: In qPCR the cycle at which signal appears reflects the starting amount.)

Take “FITC-labeled PYY: fluorescently (N terminus FITC) labeled PYY”: the “localization of labeled peptide” value in assay [1] was “localized exclusively to the same terminal hyphal cells that take up PI”.
For LPS, the “luminal PYY release” value in assay [2] (Germ-free (GF) tissues) is listed as “released only in response to Carb”; in assay [2] (Specific-Pathogen Free (SPF) tissues), “released PYY”.
As for Magainin-2, the “inhibition of biofilm formation” value in assay [3] was “inhibit biofilm formation”. Further, the “C. albicans culture growth” value in assay [4] is reported as “inhibited culture growth”. For the same substance, the respiration entry in assay [5] (hyphal form) is given as “suppressed respiration”; in assay [5] (yeast form) it was “suppressed activity”; in assay [6] (hyphal form), “suppressed respiration”; in assay [6] (yeast form), “suppressed activity”. Besides, in assay [7], the virulence gene expression entry was “induced expression of several virulence genes”.

These data come from patent US12240890B2, “Compositions and methods for treating and/or preventing pathogenic fungal infection and for maintenance of microbiome commensalism” (priority 2017, dated 2025).
